The values that follow come from US20170042171A1, “METHOD OF HANDLING MANGOES” (AGROFRESH, INC., priority 2011, published 2017).

For experiment [1], the system named is mangoes, Tommy Adkins cultivar. Kind of experiment: Pulp firmness of mangoes after MAP bag and/or 1-MCP exposure prior to transport simulation (Example 1). The format is in vivo, Mangifera indica. Here is the method:
(§1) Mangoes were evaluated for peel and pulp firmness, which are commercial measures of mango quality, using the following test procedure: • Determination of peel resistant to penetration (peel firmness) was accomplished using a Chatillon penetrometer (model DPPH-100) equipped with a chisel tip (6 mm wide). • Readings were obtained choosing randomly six fruit from each treatment. Each fruit was placed by the side on the penetrometer and then the tip of the instrument (chisel) was stalled into the fruit (about 8 mm deep). Six fruits per treatment were selected and readings were used for obtaining the average value of peel firmness for each treatment. • For testing flesh firmness, the other side of the fruit selected for testing peel resistant to penetration was used. The side not tested for peel resistance to penetration was peeled using a standard fruit peeler (which removed approximately a 2 mm thick peel tissue section). The total area peeled was approximately five square centimeters. • Immediately after removing the peel, each fruit was placed on the penetrometer and a new value of firmness was obtained using the chisel tip (to a depth of about 8 mm). Average values were calculated using six fruits per treatment.
Fruit was harvested from a commercial mango farm (Mango Rica S.A.) located in Liberia, Guanacaste. Costa Rica on Apr. 7, 2011. […]

Experiment [2] concerns Mangos, Tommy Atkins variety. Kind of experiment: Pulp firmness of mangoes after 1-MCP at different concentrations with or without modified B bag, shelf-storage simulation (Example 2). The format is in vivo, Mangifera indica. Particulars: for Pulp Firmness Difference from Control: 10° C. 15 hours, then ca. 22° C. three days. Here is the method:
as §1
This experiment utilized a modified version of the “B bag”. Rather than three layers, the bag consisted of two extruded layers in an 80/20 ratio with the following composition:
The film was perforated using a laser to give an average hole diameter of 104 micrometers with 52 perforations per bag in four rows. The OTR of the bag was ca. 370 cc/hour.
Mangos, Tommy Atkins variety imported from Guatemala, were kept at a temperature of 10° C. for three days. Portions of the mangos were subjected to one of eight different treatments; control (no 1-MCP or bag), 1-MCP only at 500 ppb, bag only, and bag plus one of five different 1-MCP application rates (50, 100, 500, 1000, and 2500 ppb). Each mango weighed ca. 1.1 Kg. For those mangos placed in bags, the bag contained four fruits for a total of 4.4 Kg of fruit per bag. The 1-MCP applications were made at a temperature of 10° C. for 15 hours. The control and each treated sample were then kept at room temperature (ca. 22° C.) for three days to simulate shelf-storage. Bags were kept closed during the shelf-storage simulation. Pulp firmness was then determined with the following results: […]

Molecules are shown by their SMILES.

As to `CC1=CC1` [1-MCP, 1-methylcyclopropene], in experiment [1] (6 mangoes per bag, 500 ppb 1-MCP for 12 hours prior to transport simulation (10-12° C., 18 days), then 18° C.), the “Mango Pulp Firmness Difference (Reported as change from control*)” value is reported as −0.03 Lbs. For the same molecule, the “mango quality based on pulp firmness (in words)” value in experiment [1] (MCP exposure prior to transport simulation) was “did not improve the quality of the mangoes”. The “Pulp Firmness Difference from Control” value in experiment [2] (Treatment 1: 1-MCP 500 ppb, Bag No) is 0.43 Lb; in experiment [2] (Treatment 3: 1-MCP 50 ppb, Bag Yes), 2.00 Lb; in experiment [2] (Treatment 4: 1-MCP 100 ppb, Bag Yes), 2.70 Lb; in experiment [2] (Treatment 5: 1-MCP 500 ppb, Bag Yes) it was 3.35 Lb; in experiment [2] (Treatment 6: 1-MCP 1000 ppb, Bag Yes) it was 2.60 Lb; in experiment [2] (Treatment 7: 1-MCP 2500 ppb, Bag Yes), 3.29 Lb. Further, the “expected additive effect of the 1-MCP treatment and MAP bag alone on pulp firmness” value in experiment [2] (sum of 1-MCP 500 ppb alone and bag alone) was 1.96 lb.
